Reference: ChEMBL document CHEMBL4002559, “Micromonohalimanes A and B: Antibacterial Halimane-Type Diterpenoids from a Marine Micromonospora Species” (2016)
Values after ≈ are worked out from the molar mass of the structure shown. Active and inactive are the calls of the source. No cut-off for these calls is given here.

Tests used:
Staphylococcus aureus [1] = assay: Antibacterial activity against methicillin-resistant Staphylococcus aureus ATCC 33591 after 18 hrs by dilution method; format: functional; conditions: ATCC 33591, 18 h
Staphylococcus aureus [2] = assay: Bacteriostatic activity against methicillin-resistant Staphylococcus aureus ATCC 33591 by LB plate method; format: functional

| SMILES | MIC (Staphylococcus aureus [1]) | Activity (Staphylococcus aureus [2]) |
| --- | --- | --- |
| CC(=O)O[C@H](C[C@@]1(C)[C@@H]2CCCC(C)(C)C2=CC[C@@H]1C)[C@@]1(O)COC(=O)[C@@H]1O | > 200 µg/mL |  |
| CC(=O)O[C@H]1C(=O)O[C@H](C[C@@]2(C)[C@@H]3CCCC(C)(C)C3=CC[C@@H]2C)[C@]1(O)CCl | 40 µg/mL (≈ 96.9 µM) | Active |
